# Test results reported in ChEMBL document CHEMBL1131152, “In vitro and in vivo activities of oligodeoxynucleotide-based thrombin inhibitors containing neutral formacetal linkages” (J Med Chem, 1998).
# Target: Prothrombin (Homo sapiens) (UniProt P00734)
# Test: Relative prothrombin time was determined as the activity of the test ODN (oligodeoxynucleotide) relative to that of GS-522
row,Compound,Relative PT
1,Cc1cn([C@H]2C[C@H](OP(=O)(O)OC[C@H]3O[C@@H](n4cnc5c(=O)nc(N)[nH]c54)C[C@@H]3OP(=O)(O)OC[C@H]3O[C@@H](n4cnc5c(=O)[nH]c(=N)[nH]c54)C[C@@H]3OP(=O)(O)OC[C@H]3O[C@@H](n4cc(C)c(=O)[nH]c4=O)C[C@@H]3OP(=O)(O)OC[C@H]3O[C@@H](n4cc(C)c(=O)[nH]c4=O)C[C@@H]3OP(=O)(O)OC[C@H]3O[C@@H](n4cnc5c(=O)[nH]c(=N)[nH]c54)C[C@@H]3OP(=O)(O)OC[C@H]3O[C@@H](n4cnc5c(=O)nc(N)[nH]c54)C[C@@H]3O)[C@@H](COCO[C@H]3C[C@H](n4cnc5c(=O)nc(N)[nH]c54)O[C@@H]3COP(=O)(O)O[C@H]3C[C@H](n4cc(C)c(=O)[nH]c4=O)O[C@@H]3COP(=O)(O)O[C@H]3C[C@H](n4cnc5c(=O)[nH]c(=N)[nH]c54)O[C@@H]3COP(=O)(O)O[C@H]3C[C@H](n4cnc5c(=O)nc(N)[nH]c54)O[C@@H]3COP(=O)(O)O[C@H]3C[C@H](n4cc(C)c(=O)[nH]c4=O)O[C@@H]3COP(=O)(O)O[C@H]3C[C@H](n4cc(C)c(=O)[nH]c4=O)O[C@@H]3COP(=O)(O)O[C@H]3C[C@H](n4cnc5c(=O)nc(N)[nH]c54)O[C@@H]3COP(=O)(O)O[C@H]3C[C@H](n4cnc5c(=O)nc(N)[nH]c54)O[C@@H]3COP(=O)(O)O)O2)c(=O)[nH]c1=O,1.1
2,Cc1cn([C@H]2C[C@H](OP(=O)(O)OC[C@H]3O[C@@H](n4cnc5c(=O)nc(N)[nH]c54)C[C@@H]3OCOC[C@H]3O[C@@H](n4cnc5c(=O)[nH]c(=N)[nH]c54)C[C@@H]3OP(=O)(O)OC[C@H]3O[C@@H](n4cc(C)c(=O)[nH]c4=O)C[C@@H]3OP(=O)(O)OC[C@H]3O[C@@H](n4cnc5c(O)nc(=N)[nH]c54)C[C@@H]3OP(=O)(O)OC[C@H]3O[C@@H](n4cc(C)c(=O)[nH]c4=O)C[C@@H]3OP(=O)(O)OC[C@H]3O[C@@H](n4cnc5c(=O)nc(N)[nH]c54)C[C@@H]3OP(=O)(O)OC[C@H]3O[C@@H](n4cnc5c(=O)[nH]c(=N)[nH]c54)C[C@@H]3OP(=O)(O)OC[C@H]3O[C@@H](n4cc(C)c(=O)[nH]c4=O)C[C@@H]3OP(=O)(O)OC[C@H]3O[C@@H](n4cc(C)c(=O)[nH]c4=O)C[C@@H]3OP(=O)(O)OC[C@H]3O[C@@H](n4cnc5c(=O)[nH]c(=N)[nH]c54)C[C@@H]3OP(=O)(O)OC[C@H]3O[C@@H](n4cnc5c(=O)nc(N)[nH]c54)C[C@@H]3O)[C@@H](COP(=O)(O)O[C@H]3C[C@H](n4cc(C)c(=O)[nH]c4=O)O[C@@H]3COP(=O)(O)O[C@H]3C[C@H](n4cnc5c(=O)nc(N)[nH]c54)O[C@@H]3COCO[C@H]3C[C@H](n4cnc5c(=O)[nH]c(=N)[nH]c54)O[C@@H]3COP(=O)(O)O)O2)c(=O)[nH]c1=O,0.6
